{
  "source": "patent US20060004026A1",
  "about": "“Compositions for ameliorating attention-deficient/hyperactivity disorder” (priority 2001, published 2006)",
  "key": {"[1]": {"system": "patients diagnosed attention-deficit hyperactivity disorder", "experiment": "administration to patients diagnosed attention-deficit hyperactivity disorder", "type": "in vivo, human", "text": "The “attention-deficit hyperactivity disorder,” as referred to herein, to which the composition of the present invention is applied is a symptom judged on the basis of a diagnostic method for ADHD, as defined in DSM-IV Seishin Shogai no Shindan•Tokei Manyuaru (Diagnosis and Statistic Manuals for DSM-IV Mental Disorders) (published by Igakushoin, 1996). Concretely, an individual with ADHD meets the following criteria.\nIn addition, the diagnosis is made under the conditions that some of these symptoms have caused problems before reaching 7-years old, and that any problems take place at present in two or more different locations (examples: school and home). Also, the judgment is made only in the case where serious disorders are recognized in social life, schoolwork and vocational work, and any of the symptoms are not caused by other diseases.\nThe exhibition of the action for mitigating or alleviating attention-deficit hyperactivity disorder by theanine can be evaluated by a clinical test in which theanine is administered to a patient who meets the above-mentioned [Criteria for Diagnosis], and any ameliorative effects on attention-deficit hyperactivity disorder are observed, as compared to that before the administration of theanine.\nFive patients who were diagnosed attention-deficit hyperactivity disorder by doctors were administered with a composition containing L-theanine. The composition was prepared so that L-theanine was mixed with crystalline cellulose, sucrose fatty acid ester, reducing maltose, silicon dioxide, lactose and aspartame so as to have the content of L-theanine of 20% by weight, and tableting the mixture to prepare a tablet."}, "mouse": {"system": "mouse", "experiment": "acute toxic test using a mouse", "type": "in vivo", "settings": "oral administration at 5 g/kg", "text": "The theanine used in the present invention has high safety. […] Also, especially L-theanine is known as a main component of umami (tastiness) of the green tea, and is also used as a food additive giving umami, without the limitation of its added amount under the regulation for food hygiene. Moreover, contrary to the conventional drugs, since there is no side effect by theanine at all, the amelioration of attention-deficit hyperactivity disorder can be safely and effectively achieved according to the composition of the present invention."}},
  "data": [
    {"smiles": "CCNC(=O)CC[C@H](N)C(=O)O", "note": "[L-theanine]", "values": [
      {"measurement": "effect judged by the doctor in charge", "setting": "[1]; Patient 1, 50 mg/day over 8 weeks", "result": "effective"},
      {"measurement": "ADHD symptoms after the termination of the administration", "setting": "[1]; Patient 1, 50 mg/day over 8 weeks, tablet with 20% by weight L-theanine", "result": "substantially disappeared"},
      {"measurement": "ADHD symptoms after the termination of the administration", "setting": "[1]; Patient 2 (person one), 200 mg/day over 10 weeks", "result": "substantially disappeared"},
      {"measurement": "effect judged by the doctor in charge", "setting": "[1]; Patient 2, 200 mg/day over 10 weeks", "result": "effective"},
      {"measurement": "ADHD symptoms", "setting": "[1]; Patient 3, 100 mg/day together with Ritalin over 1 week", "result": "substantially disappeared"},
      {"measurement": "behaviour at school on the day of administration", "setting": "[1]; Patient 4, 200 mg/day only once before school", "result": "could attend the classes without any problems"},
      {"measurement": "state of symptoms in the following day (maintenance by a single dosage)", "setting": "[1]; Patient 4, 200 mg/day only once, following day", "result": "returned to the original state of symptoms"},
      {"measurement": "ADHD symptoms after the termination of the administration", "setting": "[1]; Patient 5, 60 mg/day over 1 week", "result": "remarkably ameliorated"}
    ]},
    {"smiles": "CCNC(=O)CC[C@H](N)C(=O)O", "note": "[theanine, γ-glutamylethylamide]", "values": [
      {"measurement": "abnormalities in the general states, weight and the like", "setting": "mouse", "result": "no abnormalities"},
      {"measurement": "cases of death", "setting": "mouse", "result": "no cases of death"}
    ]},
    {"smiles": "COC(=O)C(c1ccccc1)C1CCCCN1", "note": "(stereo not drawn) [Ritalin, methylphenidate, reference compound]", "values": [
      {"measurement": "ADHD symptoms during the administration", "setting": "[1]; Patient 2, earlier treatment with Ritalin", "result": "stabilized"},
      {"measurement": "side effects", "setting": "[1]; Patient 2, earlier treatment with Ritalin, administration was stopped", "result": "serious"}
    ]}
  ]
}
